Measurements: ChEMBL document CHEMBL1136220, “Synthesis and cytotoxic activity of A-ring modified betulinic acid derivatives” (2003)
In brackets after ≈: the same amount, converted by molar mass.

Assays:
Assay type in all cases: functional
A549 = experiment: Cytotoxic activity towards A-549 cells; settings: Homo sapiens, read-out: ED50 (the source's name)
B16-F10 = experiment: Cytotoxic activity towards B16-F10 cells; settings: Mus musculus, read-out: ED50 (the source's name)
SK-MEL-2 = experiment: Cytotoxic activity towards M2 cells (SK-MEL-2); settings: Homo sapiens, read-out: ED50 (the source's name)

## COC(=O)[C@]12CC[C@@H](C(C)C)C1C1CCC3[C@]4(C)C(CC[C@@]3(C)[C@]1(C)CC2)C(C)(C)C(=O)[C@@H]1O[C@@H]14 (stereo not given in full)
A549
  EC50: > 30 µg/mL
B16-F10
  EC50: > 30 µg/mL
SK-MEL-2
  EC50: > 30 µg/mL

## CC(C)[C@@H]1CC[C@]2(C(=O)O)CC[C@]3(C)C(CC[C@@H]4[C@@]5(C)C=CC(=O)C(C)(C)C5CC[C@]43C)C12 (stereo not given in full)
A549
  EC50: 2.89 µg/mL (≈ 6.36 µM)
B16-F10
  EC50: 1.75 µg/mL (≈ 3.85 µM)
SK-MEL-2
  EC50: 2.29 µg/mL (≈ 5.04 µM)

## CC(C)[C@@H]1CC[C@]2(C(=O)O)CC[C@]3(C)C(CC[C@@H]4[C@@]5(C)CC(C=O)=C(O)C(C)(C)C5CC[C@]43C)C12 (stereo not given in full)
A549
  EC50: 2.2 µg/mL (≈ 4.54 µM)
B16-F10
  EC50: 1.66 µg/mL (≈ 3.42 µM)
SK-MEL-2
  EC50: 3.76 µg/mL (≈ 7.76 µM)

## COC(=O)[C@]12CC[C@@H](C(C)C)C1C1CC[C@@H]3[C@@]4(C)C=CC(=O)C(C)(C)C4CC[C@@]3(C)[C@]1(C)CC2 (stereo not given in full)
A549
  EC50: > 30 µg/mL
B16-F10
  EC50: > 30 µg/mL
SK-MEL-2
  EC50: > 30 µg/mL

## C=C(C)[C@@H]1CC[C@]2(C(=O)OC)CC[C@]3(C)C(CC[C@@H]4[C@@]5(C)CC(C=O)=C(O)C(C)(C)C5CC[C@]43C)C12 (stereo not given in full)
A549
  EC50: > 30 µg/mL
B16-F10
  EC50: > 30 µg/mL
SK-MEL-2
  EC50: > 30 µg/mL

## C=C(C)[C@@H]1CC[C@]2(C(=O)OC)CC[C@]3(C)C(CC[C@@H]4[C@@]5(C)C=C(C#N)C(=O)C(C)(C)C5CC[C@]43C)C12 (stereo not given in full)
A549
  EC50: 4.55 µg/mL (≈ 9.25 µM)
B16-F10
  EC50: 3.57 µg/mL (≈ 7.26 µM)
SK-MEL-2
  EC50: 2.12 µg/mL (≈ 4.31 µM)

## COC(=O)[C@]12CC[C@@H](C(C)C)C1C1CC[C@@H]3[C@@]4(C)Cc5cnoc5C(C)(C)C4CC[C@@]3(C)[C@]1(C)CC2 (stereo not given in full)
A549
  EC50: > 30 µg/mL
B16-F10
  EC50: > 30 µg/mL
SK-MEL-2
  EC50: > 30 µg/mL

## C=C(C)[C@@H]1CC[C@]2(C(=O)O)CC[C@]3(C)C(CC[C@@H]4[C@@]5(C)CC(C=O)=C(O)C(C)(C)C5CC[C@]43C)C12 (stereo not given in full)
A549
  EC50: 2.76 µg/mL (≈ 5.72 µM)
B16-F10
  EC50: > 30 µg/mL
SK-MEL-2
  EC50: > 30 µg/mL

## CC(C)[C@@H]1CC[C@]2(C(=O)O)CC[C@]3(C)C(CC[C@@H]4[C@@]5(C)Cc6cnoc6C(C)(C)C5CC[C@]43C)C12 (stereo not given in full)
A549
  EC50: 2.7 µg/mL (≈ 5.6 µM)
B16-F10
  EC50: 1.57 µg/mL (≈ 3.26 µM)
SK-MEL-2
  EC50: 1.15 µg/mL (≈ 2.39 µM)

## COC(=O)[C@]12CC[C@@H](C(C)C)C1C1CC[C@@H]3[C@@]4(C)C=C(C=O)C(=O)C(C)(C)C4CC[C@@]3(C)[C@]1(C)CC2 (stereo not given in full)
A549
  EC50: 0.31 µg/mL (≈ 0.624 µM)
B16-F10
  EC50: 0.29 µg/mL (≈ 0.584 µM)
SK-MEL-2
  EC50: 0.73 µg/mL (≈ 1.47 µM)

## CC(C)[C@@H]1CC[C@]2(C(=O)O)CC[C@]3(C)C(CC[C@@H]4[C@@]5(C)C=C(Cl)C(=O)C(C)(C)C5CC[C@]43C)C12 (stereo not given in full)
A549
  EC50: 1.01 µg/mL (≈ 2.06 µM)
B16-F10
  EC50: 1.55 µg/mL (≈ 3.17 µM)
SK-MEL-2
  EC50: 0.13 µg/mL (≈ 0.266 µM)

## CC(C)[C@@H]1CC[C@]2(C(=O)O)CC[C@]3(C)C(CC[C@@H]4[C@@]5(C)C=C(C#N)C(=O)C(C)(C)C5CC[C@]43C)C12 (stereo not given in full)
A549
  EC50: 1.32 µg/mL (≈ 2.75 µM)
B16-F10
  EC50: 1.43 µg/mL (≈ 2.98 µM)
SK-MEL-2
  EC50: 0.81 µg/mL (≈ 1.69 µM)

## COC(=O)[C@]12CC[C@@H](C(C)C)C1C1CC[C@@H]3[C@@]4(C)C=C(OC)C(=O)C(C)(C)C4CC[C@@]3(C)[C@]1(C)CC2 (stereo not given in full)
A549
  EC50: > 30 µg/mL
B16-F10
  EC50: > 30 µg/mL
SK-MEL-2
  EC50: > 30 µg/mL

## COC(=O)[C@]12CC[C@@H](C(C)C)C1C1CC[C@@H]3[C@@]4(C)C=C(C#N)C(=O)C(C)(C)C4CC[C@@]3(C)[C@]1(C)CC2 (stereo not given in full)
A549
  EC50: 13 µg/mL (≈ 26.3 µM)
B16-F10
  EC50: 0.8 µg/mL (≈ 1.62 µM)
SK-MEL-2
  EC50: 1.25 µg/mL (≈ 2.53 µM)

## C=C(C)[C@@H]1CC[C@]2(C(=O)O)CC[C@]3(C)C(CC[C@@H]4[C@@]5(C)Cc6cnoc6C(C)(C)C5CC[C@]43C)C12 (stereo not given in full)
A549
  EC50: 1.54 µg/mL (≈ 3.21 µM)
B16-F10
  EC50: 3.11 µg/mL (≈ 6.48 µM)
SK-MEL-2
  EC50: 16.6 µg/mL (≈ 34.6 µM)

## C=C(C)[C@@H]1CC[C@]2(C(=O)OC)CC[C@]3(C)C(CC[C@@H]4[C@@]5(C)Cc6cnoc6C(C)(C)C5CC[C@]43C)C12 (stereo not given in full)
A549
  EC50: > 30 µg/mL
B16-F10
  EC50: > 30 µg/mL
SK-MEL-2
  EC50: > 30 µg/mL

## CC(C)[C@@H]1CC[C@]2(C(=O)O)CC[C@]3(C)C(CC[C@@H]4[C@@]5(C)C=C(C=O)C(=O)C(C)(C)C5CC[C@]43C)C12 (stereo not given in full)
A549
  EC50: 0.17 µg/mL (≈ 0.352 µM)
B16-F10
  EC50: 0.3 µg/mL (≈ 0.621 µM)
SK-MEL-2
  EC50: 0.26 µg/mL (≈ 0.539 µM)

## COC(=O)[C@]12CC[C@@H](C(C)C)C1C1CC[C@@H]3[C@@]4(C)CC(C=O)=C(O)C(C)(C)C4CC[C@@]3(C)[C@]1(C)CC2 (stereo not given in full)
A549
  EC50: > 30 µg/mL
B16-F10
  EC50: > 30 µg/mL
SK-MEL-2
  EC50: > 30 µg/mL

## COC(=O)[C@]12CC[C@@H](C(C)C)C1C1CC[C@@H]3[C@@]4(C)C=C(Cl)C(=O)C(C)(C)C4CC[C@@]3(C)[C@]1(C)CC2 (stereo not given in full)
A549
  EC50: > 30 µg/mL
B16-F10
  EC50: > 30 µg/mL
SK-MEL-2
  EC50: > 30 µg/mL

## C=C(C)[C@@H]1CC[C@]2(C(=O)O)CC[C@]3(C)[C@H](CC[C@@H]4[C@@]5(C)CC[C@H](O)C(C)(C)[C@@H]5CC[C@]43C)[C@@H]12 [BETULINIC ACID]
A549
  EC50: 7.7 µg/mL (≈ 16.9 µM)
B16-F10
  EC50: 4.98 µg/mL (≈ 10.9 µM)
SK-MEL-2
  EC50: 7.62 µg/mL (≈ 16.7 µM)
